Results published in BindingDB's records for doi:10.1021/acs.jmedchem.0c00988 (Rapt Therapeutics, 2020).

Assay: Antagonist activity at CCR4 in mouse Treg cells assessed as inhibition of CCL22-mediated chemotaxis preincubated for 30 mins followed by CCL22 addition and measured after 60 mins in presence of 100% mouse serum by CellTiter-Glo assay

Row | Structure (SMILES) | IC50 [nM]
1 | C[C@H](c1ccc(Cl)cc1Cl)n1nc(C#N)c2ncc(N3CC([C@H]4CCCN(CCO)C4)C3)nc21 | 39

Assay: Antagonist activity at CCR4 in human Treg cells assessed as inhibition of CCL22-mediated chemotaxis preincubated for 30 mins followed by CCL22 addition and measured after 60 mins in presence of 100% human serum by CellTiter-Glo assay

Row | Structure (SMILES) | IC50 [nM]
2 | C[C@H](c1ccc(Cl)cc1Cl)n1nc(C#N)c2ncc(N3CC([C@H]4CCCN(CCO)C4)C3)nc21 | 33

Assay: Antagonist activity at CCR4 in human CCRF-CEM cells assessed as inhibition of CCL17-mediated chemotaxis preincubated for 30 mins followed by CCL17 addition and measured after 60 mins in presence of 100% human serum by CellTiter-Glo assay

Row | Structure (SMILES) | IC50 [nM]
3 | C[C@H](c1ccc(Cl)cc1Cl)n1nc(C#N)c2ncc(N3CC([C@H]4CCCN(CCO)C4)C3)nc21 | 64

Assay: Antagonist activity at CCR4 in human CCRF-CEM cells assessed as inhibition of CCL22-mediated chemotaxis preincubated for 30 mins followed by CCL22 addition and measured after 60 mins in presence of 100% human serum by CellTiter-Glo assay

Row | Structure (SMILES) | IC50 [nM]
4 | Cc1nn([C@H](C)c2ccc(Cl)cc2Cl)c2nc(N3CC([C@H]4CCCN(CCS(N)(=O)=O)C4)C3)cnc12 | 717
5 | Cc1nn([C@H](C)c2ccc(Cl)cc2Cl)c2nc(N3CC([C@H]4CCCN(CCNS(C)(=O)=O)C4)C3)cnc12 | 136
6 | Cc1nn([C@H](C)c2ccc(Cl)cc2Cl)c2nc(N3CC([C@H]4CCCN(CCNS(=O)(=O)C(C)C)C4)C3)cnc12 | 115
7 | Cc1nn([C@H](C)c2ccc(Cl)cc2Cl)c2nc(N3CC([C@H]4CCCN(CCS(C)(=O)=O)C4)C3)cnc12 | 575
8 | Cc1nn([C@H](C)c2ccc(Cl)cc2Cl)c2nc(N3CC([C@H]4CCCN(CCCS(C)(=O)=O)C4)C3)cnc12 | 259
9 | Cc1nn([C@H](C)c2ccc(Cl)cc2Cl)c2nc(N3CC([C@H]4CCCN(CCCC(=O)O)C4)C3)cnc12 | 559
10 | Cc1nn([C@H](C)c2ccc(Cl)cc2Cl)c2nc(N3CC([C@H]4CCCN(CCC(=O)O)C4)C3)cnc12 | 370
11 | C[C@H](c1ccc(Cl)cc1Cl)n1nc(C#N)c2ncc(N3CC([C@H]4CCCN(CCC(=O)O)C4)C3)nc21 | 409
12 | C[C@H](c1ccc(Cl)cc1Cl)n1nc(C#N)c2ncc(N3CC([C@H]4CCCN(CC(=O)O)C4)C3)nc21 | 775
13 | Cc1nn([C@H](C)c2ccc(Cl)cc2Cl)c2nc(N3CC([C@H]4CCCN(CCC(N)=O)C4)C3)cnc12 | 247
14 | CC(=O)NCCN1CCC[C@H](C2CN(c3cnc4c(C)nn([C@H](C)c5ccc(Cl)cc5Cl)c4n3)C2)C1 | 40
15 | Cc1nn([C@H](C)c2ccc(Cl)cc2Cl)c2nc(N3CC([C@H]4CCCN(CCNC(=O)C(C)C)C4)C3)cnc12 | 59
16 | COC(=O)NCCN1CCC[C@H](C2CN(c3cnc4c(C)nn([C@H](C)c5ccc(Cl)cc5Cl)c4n3)C2)C1 | 133
17 | C[C@H](c1ccc(Cl)cc1Cl)n1nc(C#N)c2ncc(N3CC([C@H]4CCCN(Cc5cnc[nH]5)C4)C3)nc21 | 97
18 | C[C@H](c1ccc(Cl)cc1Cl)n1nc(C#N)c2ncc(N3CC([C@H]4CCCN(CCC#N)C4)C3)nc21 | 523
19 | C[C@H](c1ccc(Cl)cc1Cl)n1nc(C#N)c2ncc(N3CC([C@H]4CCCN(CCC(F)(F)F)C4)C3)nc21 | 1500
20 | Cc1nn([C@H](C)c2ccc(Cl)cc2Cl)c2nc(N3CC([C@H]4CCCN(CCCO)C4)C3)cnc12 | 109
21 | Cc1nn([C@H](C)c2ccc(Cl)cc2Cl)c2nc(N3CC([C@H]4CCCN(CCO)C4)C3)cnc12 | 74
22 | C[C@H](c1ccc(Cl)cc1Cl)n1nc(C#N)c2ncc(N3CC([C@H]4CCCN(CCO)C4)C3)nc21 | 50
23 | C[C@H](c1ccc(Cl)cc1Cl)n1nc(C(N)=O)c2ncc(N3CC([C@H]4CCCN(CCO)C4)C3)nc21 | 36
24 | CNC(=O)c1nn([C@H](C)c2ccc(Cl)cc2Cl)c2nc(N3CC([C@H]4CCCN(CCO)C4)C3)cnc12 | 446
25 | C[C@H](c1ccc(Cl)cc1Cl)n1nc(C(=O)N(C)C)c2ncc(N3CC([C@H]4CCCN(CCO)C4)C3)nc21 | 379
